We go through 35 molecules from patent US20220144838A1, “Compounds as Inhibitors of Macrophage Migration Inhibitory Factor” (NANJING IMMUNOPHAGE BIOTECH CO., LTD., priority 2019, published 2022).

The first assay addresses T1, MIF (Homo sapiens, UniProt P14174).
T1 sequence (P14174 2-115 limits assumed): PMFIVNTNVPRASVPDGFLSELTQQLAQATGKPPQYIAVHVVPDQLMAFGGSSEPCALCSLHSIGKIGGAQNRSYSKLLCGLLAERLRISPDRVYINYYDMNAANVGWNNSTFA
Kind of assay: MIF tautomerase assay using pHPP as substrate. It is filed as biochemical. To be noted: FIGS. 1-5; mean of multiple test results; read-out: pIC50 MIF tautomerase activity (converted). The method in brief: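 Mean pIC50 derived from initial rates (absorbance progress-curve slopes) of MIF-catalyzed ketonic-to-enolic pHPP conversion, read as enol–borate complex. Reactions contained 1.5 mM substrate and 3 nM enzyme (final), 200 mM boric acid stock buffer, BSA and CHAPS, pH 6.0.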
Take `O=C(O)Cn1cnc2c(-n3ncc4c(C(=O)O)cccc43)nc(N3CCN(c4ccc(O)cc4)CC3)nc21` [Example 99, 1-(9-(carboxymethyl)-2-(4-(4-hydroxyphenyl)piperazin-1-yl)-9H-purin-6-yl)-1H-indazole-4-carboxylic acid]: the IC50 was at most 100 nM. The same measure, in the same setting: with `CC(C)(C)OC(=O)Cn1cnc2c(-n3nnc4c(C(=O)O)cccc43)nc(N3CCN(c4ccc(O)cc4)CC3)nc21` [Example 100, 1-(9-(2-(tert-butoxy)-2-oxoethyl)-2-(4-(4-hydroxyphenyl)piperazin-1-yl)-9H-purin-6-yl)-1H-benzo[d][1,2,3]triazole-4-carboxylic acid] the figure was at most 100 nM; with `O=C(O)Cn1cnc2c(-n3ncc4cc(CO)ccc43)nc(N3CCN(c4ccc(O)cc4)CC3)nc21` [Example 109, 2-(6-(5-(hydroxymethyl)-1H-indazol-1-yl)-2-(4-(4-hydroxyphenyl)piperazin-1-yl)-9H-purin-9-yl)acetic acid], at most 100 nM.

Staying with this assay, now noted: inhibition of the MIF enzyme in vitro; mean of multiple test results; read-out: Tautomerase Inhibition pIC50 (converted).
On to `Nc1nc(N2CCN(c3ccc(O)cc3)CC2)nc2c1ncn2-c1cccc(O)c1` [Example 77, 3-(6-amino-2-(4-(4-hydroxyphenyl)piperazin-1-yl)-9H-purin-9-yl)phenol], for which the IC50 is 1000 to 9770 nM. Same read-out and setting: the figure for `Nc1nc(N2CCN(c3ccc(O)cc3)CC2)nc2c1ncn2-c1cccc(-c2ccccc2)c1` [Example 78, 4-(4-(9-([1,1′-biphenyl]-3-yl)-6-amino-9H-purin-2-yl)piperazin-1-yl)phenol] is 1000 to 9770 nM; for `COc1ncccc1-n1cnc2c(N)nc(N3CCN(c4ccc(O)cc4)CC3)nc21` [Example 79, 4-(4-(6-amino-9-(2-methoxypyridin-3-yl)-9H-purin-2-yl)piperazin-1-yl)phenol] it is over 10000 nM; for `COc1cc(-n2cnc3c(N)nc(N4CCN(c5ccc(O)cc5)CC4)nc32)ccn1` [Example 82, 4-(4-(6-amino-9-(2-methoxypyridin-4-yl)-9H-purin-2-yl)piperazin-1-yl)phenol] it is 100 to 977 nM. As for `CCOc1ncccc1-n1cnc2c(N)nc(N3CCN(c4ccc(O)cc4)CC3)nc21` [Example 83, 4-(4-(6-amino-9-(2-ethoxypyridin-3-yl)-9H-purin-2-yl)piperazin-1-yl)phenol], the IC50 was 1000 to 9770 nM.

Consider `COc1ccc(-n2cnc3c(N)nc(N4CCN(c5ccc(O)cc5)CC4)nc32)c(OC)n1` [Example 84, 4-(4-(6-amino-9-(2,6-dimethoxypyridin-3-yl)-9H-purin-2-yl)piperazin-1-yl)phenol], for which the IC50 is 1000 to 9770 nM.

`COc1ccc(-n2cnc3c(N)nc(N4CCN(c5ccc(O)cc5)CC4)nc32)cn1` [Example 85, 4-(4-(6-amino-9-(6-methoxypyridin-3-yl)-9H-purin-2-yl)piperazin-1-yl)phenol]: the IC50 is 100 to 977 nM. With `N#Cc1ccc(-n2cnc3c(N)nc(N4CCN(c5ccc(O)cc5)CC4)nc32)cn1` [Example 86, 5-(6-amino-2-(4-(4-hydroxyphenyl)piperazin-1-yl)-9H-purin-9-yl)picolinonitrile], the IC50 is 100 to 977 nM. Same read-out and setting: with `Cn1cc(-n2cnc3c(N)nc(N4CCN(c5ccc(O)cc5)CC4)nc32)cn1` [Example 88, 4-(4-(6-amino-9-(1-methyl-1H-pyrazol-4-yl)-9H-purin-2-yl)piperazin-1-yl)phenol] the figure was 1000 to 9770 nM; with `Nc1nc(N2CCN(c3ccc(O)cc3)CC2)nc2c1ncn2Cc1ccccc1` [Example 89, 4-(4-(6-amino-9-benzyl-9H-purin-2-yl)piperazin-1-yl)phenol], 1000 to 9770 nM. On to `Oc1ccc(N2CCN(c3nc(NCc4ccccc4)c4ncn(-c5cccnc5)c4n3)CC2)cc1` [Example 90, 4-(4-(6-(benzylamino)-9-(pyridin-3-yl)-9H-purin-2-yl)piperazin-1-yl)phenol], for which the IC50 is 1000 to 9770 nM. As to `Oc1ccc(N2CCN(c3nc(NCCc4ccccc4)c4ncn(-c5cccnc5)c4n3)CC2)cc1` [Example 91, 4-(4-(6-(phenethylamino)-9-(pyridin-3-yl)-9H-purin-2-yl)piperazin-1-yl)phenol], the IC50 was 100 to 977 nM. As to `Oc1ccc(N2CCN(c3nc(N4CCCC4)c4ncn(-c5cccnc5)c4n3)CC2)cc1` [Example 92, 4-(4-(9-(pyridin-3-yl)-6-(pyrrolidin-1-yl)-9H-purin-2-yl)piperazin-1-yl)phenol], the IC50 is 1000 to 9770 nM. `OC[C@H]1CCCN1c1nc(N2CCN(c3ccc(O)cc3)CC2)nc2c1ncn2-c1cccnc1` [Example 93, (R)-4-(4-(6-(2-(hydroxymethyl)pyrrolidin-1-yl)-9-(pyridin-3-yl)-9H-purin-2-yl)piperazin-1-yl)phenol]: the IC50 is 100 to 977 nM. Regarding `OCC1CCN(c2nc(N3CCN(c4ccc(O)cc4)CC3)nc3c2ncn3-c2cccnc2)C1` (centres unmarked) [Example 94, 4-(4-(6-(3-(hydroxymethyl)pyrrolidin-1-yl)-9-(pyridin-3-yl)-9H-purin-2-yl)piperazin-1-yl)phenol], the IC50 was 100 to 977 nM. Take `Oc1ccc(N2CCN(c3nc(NC4CCCC4)c4ncn(-c5cccnc5)c4n3)CC2)cc1` [Example 96, 4-(4-(6-(cyclopentylamino)-9-(pyridin-3-yl)-9H-purin-2-yl)piperazin-1-yl)phenol]: the IC50 was 1000 to 9770 nM. Regarding `O=C(Cn1cnc2c(-n3ncc4ccccc43)nc(N3CCN(c4ccc(O)cc4)CC3)nc21)NS(=O)(=O)c1ccccc1` [Example 97, 2-(2-(4-(4-hydroxyphenyl)piperazin-1-yl)-6-(1H-indazol-1-yl)-9H-purin-9-yl)-N-(phenylsulfonyl)acetamide], the IC50 was 100 to 977 nM. `O=C(Cn1cnc2c(-n3ncc4ccccc43)nc(N3CCN(c4ccc(O)cc4)CC3)nc21)NS(=O)(=O)Cc1ccccc1` [Example 98, N-(benzylsulfonyl)-2-(2-(4-(4-hydroxyphenyl)piperazin-1-yl)-6-(1H-indazol-1-yl)-9H-purin-9-yl)acetamide]: the IC50 was 100 to 977 nM. With `O=C(O)Cn1cnc2c(-n3ncc4c(C(=O)O)cccc43)nc(N3CCN(c4ccc(O)cc4)CC3)nc21` [Example 99, 1-(9-(carboxymethyl)-2-(4-(4-hydroxyphenyl)piperazin-1-yl)-9H-purin-6-yl)-1H-indazole-4-carboxylic acid], the IC50 is 10 to 97.7 nM. With `CC(C)(C)OC(=O)Cn1cnc2c(-n3nnc4c(C(=O)O)cccc43)nc(N3CCN(c4ccc(O)cc4)CC3)nc21` [Example 100, 1-(9-(2-(tert-butoxy)-2-oxoethyl)-2-(4-(4-hydroxyphenyl)piperazin-1-yl)-9H-purin-6-yl)-1H-benzo[d][1,2,3]triazole-4-carboxylic acid], the IC50 was 10 to 97.7 nM. On the same count and under the same terms, the figure for `COC(=O)c1ccc(-n2cnc3c(N)nc(N4CCN(c5ccc(O)cc5)CC4)nc32)cc1` [Example 101, methyl 4-(6-amino-2-(4-(4-hydroxyphenyl)piperazin-1-yl)-9H-purin-9-yl)benzoate] is 100 to 977 nM; for `Nc1nc(N2CCN(c3ccc(O)cc3)CC2)nc2c1ncn2-c1ccc(C(=O)O)cc1` [Example 102, 4-(6-amino-2-(4-(4-hydroxyphenyl)piperazin-1-yl) 9H-purin-9-yl)benzoic acid] it is 1000 to 9770 nM. Regarding `CNC(=O)c1ccc(-n2cnc3c(N)nc(N4CCN(c5ccc(O)cc5)CC4)nc32)cc1` [Example 103, 4-(6-amino-2-(4-(4-hydroxyphenyl)piperazin-1-yl)-9H-purin-9-yl)-N-methylbenzamide], the IC50 is 1000 to 9770 nM. In the case of `O=C(O)Cn1cnc2c(-n3ncc4ccc(C(=O)O)cc43)nc(N3CCN(c4ccc(O)cc4)CC3)nc21` [Example 104, 1-(9-(carboxymethyl)-2-(4-(4-hydroxyphenyl)piperazin-1-yl)-9H-purin-6-yl)-1H-indazole-6-carboxylic acid], the IC50 is 1000 to 9770 nM. Same read-out and setting: with `O=C(O)Cn1cnc2c(-n3ncc4ccc(CO)cc43)nc(N3CCN(c4ccc(O)cc4)CC3)nc21` [Example 105, 2-(6-(6-(hydroxymethyl)-1H-indazol-1-yl)-2-(4-(4-hydroxyphenyl)piperazin-1-yl)-9H-purin-9-yl)acetic acid] the figure was 100 to 977 nM; with `O=C(O)Cn1cnc2c(-n3ncc4c(Cl)cccc43)nc(N3CCN(c4ccc(O)cc4)CC3)nc21` [Example 106, 2-(6-(4-chloro-1H-indazol-1-yl)-2-(4-(4-hydroxyphenyl)piperazin-1-yl)-9H-purin-9-yl)acetic acid], 100 to 977 nM; with `COc1cccc2c1cnn2-c1nc(N2CCN(c3ccc(O)cc3)CC2)nc2c1ncn2CC(=O)O` [Example 107, 2-(6-(4-methoxy-1H-indazol-1-yl)-2-(4-(4-hydroxyphenyl)piperazin-1-yl)-9H-purin-9-yl)acetic acid], 10 to 97.7 nM.

As to `O=C(O)Cn1cnc2c(-n3ncc4c(O)cccc43)nc(N3CCN(c4ccc(O)cc4)CC3)nc21` [Example 108, 2-(6-(4-hydroxy-1H-indazol-1-yl)-2-(4-(4-hydroxyphenyl)piperazin-1-yl)-9H-purin-9-yl)acetic acid], the IC50 is 10 to 97.7 nM. Consider `O=C(O)Cn1cnc2c(-n3ncc4cc(CO)ccc43)nc(N3CCN(c4ccc(O)cc4)CC3)nc21` [Example 109, 2-(6-(5-(hydroxymethyl)-1H-indazol-1-yl)-2-(4-(4-hydroxyphenyl)piperazin-1-yl)-9H-purin-9-yl)acetic acid], for which the IC50 was 10 to 97.7 nM. Turning to `Cc1nc(N2CCN(c3ccc(O)cc3)CC2)nc2c1ncn2C(CO)CO` [Example 110, 2-(2-(4-(4-hydroxyphenyl)piperazin-1-yl)-6-methyl-9H-purin-9-yl)propane-1,3-diol], the IC50 is over 10000 nM. Consider `Cc1nc(N2CCN(c3ccc(O)cc3)CC2)nc2c1ncn2CCO` [Example 111, 4-(4-(9-(2-hydroxyethyl)-6-methyl-9H-purin-2-yl)piperazin-1-yl)phenol], for which the IC50 was 1000 to 9770 nM.

As to `OCCNc1nc(N2CCN(c3ccc(O)cc3)CC2)nc2c1ncn2-c1cccnc1` [Example 112, 4-(4-(6-((2-hydroxyethyl)amino)-9-(pyridin-3-yl)-9H-purin-2-yl)piperazin-1-yl)phenol], the IC50 was 100 to 977 nM. Still for that read-out and setting: the figure for `OCCCNc1nc(N2CCN(c3ccc(O)cc3)CC2)nc2c1ncn2-c1cccnc1` [Example 113, 4-(4-(6-((3-hydroxypropyl)amino)-9-(pyridin-3-yl)-9H-purin-2-yl)piperazin-1-yl)phenol] is 100 to 977 nM; for `CCC(CO)Nc1nc(N2CCN(c3ccc(O)cc3)CC2)nc2c1ncn2-c1cccnc1` (centres unmarked) [Example 114] it is 100 to 977 nM. As for `Oc1ccc(N2CCN(c3nc(-n4ncc5ccccc54)c4ncn(Cc5ccccn5)c4n3)CC2)cc1` [Example 116, 4-(4-(6-(1H-indazol-1-yl)-9-(pyridin-2-ylmethyl)-9H-purin-2-yl)piperazin-1-yl)phenol], the IC50 is 100 to 977 nM.
